Results from article PMC7531004, “Discovery of gramicidin A analogues with altered activities by multidimensional screening of a one-bead-one-compound library” (Nature Communications, 2020).
Where a SMILES comes first, the peptide text is derived from it. [ ]: non-standard residue; d: D form. The star is where a group is joined. NHCH2CH2OH = OCCN*; For = O=C*

Key:
[1] = system: P388 mouse leukemia cells; conditions: 92 h
Summary of the method: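 Peptide stocks diluted 250× in growth medium; P388 cells 1 × 10^4 cells/mL final; 37 °C, 5% CO2, 92 h. WST-1 + 1-methoxy PMS, 4 h, A415. Output: % viability.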

[2] = H+/Na+ transport assay of bead-derived peptides (one-point); format: biochemical; parameters: key: relative activity; mean of two control wells = 1.00; conditions: bead-derived peptide solution, EYPC/EYPG LUVs;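 note: relative to parent gramicidin A activity set to 1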
Summary of the method: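 Miniaturized 96-well format. LUVs with entrapped pyranine (1.0 mM) were exposed to peptide for 30 min at RT. Intensities were expressed relative to full lysis by Triton X-100 and no treatment, with control-well mean = 1.00.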

[3] = system: Streptococcus pyogenes SSI-9; experiment: Antibacterial activity assay of bead-derived peptides (three concentrations); format: cell-based; parameters: key: +++: inhibition by the 640-fold diluted peptide solution; ++: inhibition by the 160-fold diluted solution; +: inhibition by the 40-fold diluted solution; -: no inhibition; conditions: S. pyogenes, bead-derived peptide solution, three concentrations
Summary of the method: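 First, each peptide stock was diluted 4- and 16-fold in DMSO; next, the three solutions were mixed with S. pyogenes SSI-9 suspension (2 × 10^5 CFU) in cation-adjusted Mueller Hinton Broth plus 5% laked horse blood; finally, plates stood 18 h at 37 °C before checking for grown-cell precipitation.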

Q: Which cell viability/% [1] does the source give for `CC(C)C[C@@H](NC(=O)[C@H](Cc1c[nH]c2ccccc12)NC(=O)[C@@H](CC(C)C)NC(=O)[C@H](Cc1c[nH]c2ccccc12)NC(=O)[C@@H](CC(C)C)NC(=O)[C@H](Cc1c[nH]c2ccccc12)NC(=O)[C@H](NC(=O)[C@@H](NC(=O)[C@H](NC(=O)[C@H](C)NC(=O)[C@H](NC(=O)[C@H](C)NC(=O)CNC(=O)[C@@H](NC=O)C(C)C)C(C)C)C(C)C)C(C)C)[C@H](C)O)C(=O)N[C@@H](Cc1c[nH]c2ccccc12)C(=O)NCCO` [compound 12287] (For-VGA[dV]A[dV]V[dT]W[dL]W[dL]W[dL]W-NHCH2CH2OH) here?
A: 100.0%

Q: And the “H+/Na+ transport activity normalized against the value of 1 (1.00)” value (shortened to “H+/Na+ transport activity normalized”) [2]?
A: 1.16

Q: What about the antibacterial activity [3] of the same compound?
A: -

Q: Which cell viability/% [1] does the source give for `CC(C)C[C@@H](NC(=O)[C@H](C)NC(=O)[C@H](NC(=O)[C@H](C)NC(=O)CNC(=O)[C@@H](NC=O)C(C)C)C(C)C)C(=O)N[C@H](C(=O)N[C@H](CC(C)C)C(=O)N[C@@H](Cc1c[nH]c2ccccc12)C(=O)N[C@@H](C(=O)N[C@@H](Cc1c[nH]c2ccccc12)C(=O)N[C@H](CC(C)C)C(=O)N[C@@H](Cc1c[nH]c2ccccc12)C(=O)N[C@@H](C(=O)N[C@@H](Cc1c[nH]c2ccccc12)C(=O)NCCO)C(C)C)C(C)C)C(C)C` [compound 9742] (For-VGA[dV]A[dL]V[dL]W[dV]W[dL]W[dV]W-NHCH2CH2OH) here?
A: 0.0%

Q: And the “H+/Na+ transport activity normalized” value [2]?
A: 1.21

Q: And the antibacterial activity [3]?
A: +

Q: For `CC(C)[C@H](NC=O)C(=O)NCC(=O)N[C@@H](C)C(=O)N[C@@H](C(=O)N[C@@H](C)C(=O)N[C@@H](C(=O)N[C@H](C(=O)N[C@@H](C(=O)N[C@@H](Cc1c[nH]c2ccccc12)C(=O)N[C@@H](C(=O)N[C@@H](Cc1c[nH]c2ccccc12)C(=O)N[C@@H](C(=O)N[C@@H](Cc1c[nH]c2ccccc12)C(=O)N[C@@H](C(=O)N[C@@H](Cc1c[nH]c2ccccc12)C(=O)NCCO)C(C)C)C(C)C)C(C)C)C(C)C)C(C)C)C(C)C)[C@H](C)O` [compound 8545] (For-VGA[dT]A[dV]V[dV]W[dV]W[dV]W[dV]W-NHCH2CH2OH), which cell viability/% [1] is on record?
A: 83.1%

Q: What about the “H+/Na+ transport activity normalized” value [2] of the same compound?
A: 1.01

Q: What about the antibacterial activity [3] of the same compound?
A: -

Q: With `CC(C)C[C@@H](NC(=O)[C@H](C)NC(=O)[C@H](NC(=O)[C@H](C)NC(=O)CNC(=O)[C@@H](NC=O)C(C)C)C(C)C)C(=O)N[C@H](C(=O)N[C@H](CC(C)C)C(=O)N[C@@H](Cc1c[nH]c2ccccc12)C(=O)N[C@H](CC(C)C)C(=O)N[C@@H](Cc1c[nH]c2ccccc12)C(=O)N[C@H](CC(C)C)C(=O)N[C@@H](Cc1c[nH]c2ccccc12)C(=O)N[C@H](CC(C)C)C(=O)N[C@@H](Cc1c[nH]c2ccccc12)C(=O)NCCO)C(C)C` [compound 12877] (For-VGA[dV]A[dL]V[dL]W[dL]W[dL]W[dL]W-NHCH2CH2OH) as the compound, how does the cell viability/% [1] read?
A: 4.7%

Q: What about the “H+/Na+ transport activity normalized” value [2] of the same compound?
A: 1.04

Q: What about the antibacterial activity [3] of the same compound?
A: -

Q: For `CNC(=O)C[C@@H](NC(=O)[C@@H](NC(=O)[C@H](NC(=O)[C@H](C)NC(=O)[C@@H](CC(C)C)NC(=O)[C@H](C)NC(=O)CNC(=O)[C@@H](NC=O)C(C)C)C(C)C)C(C)C)C(=O)N[C@@H](Cc1c[nH]c2ccccc12)C(=O)N[C@@H](C(=O)N[C@@H](Cc1c[nH]c2ccccc12)C(=O)N[C@H](CC(C)C)C(=O)N[C@@H](Cc1c[nH]c2ccccc12)C(=O)N[C@H](CC(C)C)C(=O)N[C@@H](Cc1c[nH]c2ccccc12)C(=O)NCCO)C(C)C` [compound 3584] (For-VGA[dL]A[dV]V[dD](NHMe)W[dV]W[dL]W[dL]W-NHCH2CH2OH), which cell viability/% [1] is on record?
A: 100.0%

Q: And the “H+/Na+ transport activity normalized” value [2]?
A: 1.22

Q: What about the antibacterial activity [3] of the same compound?
A: -

Q: With `CC(C)C[C@@H](NC(=O)[C@H](C)NC(=O)CNC(=O)[C@@H](NC=O)C(C)C)C(=O)N[C@@H](C)C(=O)N[C@@H](C(=O)N[C@H](C(=O)N[C@@H](C(=O)N[C@@H](Cc1c[nH]c2ccccc12)C(=O)N[C@@H](C(=O)N[C@@H](Cc1c[nH]c2ccccc12)C(=O)N[C@H](CC(C)C)C(=O)N[C@@H](Cc1c[nH]c2ccccc12)C(=O)N[C@H](CC(C)C)C(=O)N[C@@H](Cc1c[nH]c2ccccc12)C(=O)NCCO)C(C)C)[C@H](C)O)C(C)C)C(C)C` [compound 9832] (For-VGA[dL]A[dV]V[dT]W[dV]W[dL]W[dL]W-NHCH2CH2OH) as the compound, how does the cell viability/% [1] read?
A: 100.0%

Q: And the “H+/Na+ transport activity normalized” value [2]?
A: 1.26

Q: What about the antibacterial activity [3] of the same compound?
A: -

Q: Which cell viability/% [1] does the source give for `CC(C)C[C@@H](NC(=O)[C@H](Cc1c[nH]c2ccccc12)NC(=O)[C@H](NC(=O)[C@H](Cc1c[nH]c2ccccc12)NC(=O)[C@H](NC(=O)[C@@H](NC(=O)[C@H](NC(=O)[C@H](C)NC(=O)[C@H](NC(=O)[C@H](C)NC(=O)CNC(=O)[C@@H](NC=O)C(C)C)[C@H](C)O)C(C)C)C(C)C)C(C)C)C(C)C)C(=O)N[C@@H](Cc1c[nH]c2ccccc12)C(=O)N[C@@H](C(=O)N[C@@H](Cc1c[nH]c2ccccc12)C(=O)NCCO)C(C)C` [compound 5933] (For-VGA[dT]A[dV]V[dV]W[dV]W[dL]W[dV]W-NHCH2CH2OH) here?
A: 73.0%

Q: And the “H+/Na+ transport activity normalized” value [2]?
A: 1.05

Q: What about the antibacterial activity [3] of the same compound?
A: -

Q: For `CC(C)C[C@@H](NC(=O)[C@H](Cc1c[nH]c2ccccc12)NC(=O)[C@H](NC(=O)[C@H](Cc1c[nH]c2ccccc12)NC(=O)[C@@H](CC(C)C)NC(=O)[C@H](Cc1c[nH]c2ccccc12)NC(=O)[C@H](NC(=O)[C@@H](NC(=O)[C@H](NC(=O)[C@H](C)NC(=O)[C@H](NC(=O)[C@H](C)NC(=O)CNC(=O)[C@@H](NC=O)C(C)C)C(C)C)C(C)C)C(C)C)C(C)C)[C@H](C)O)C(=O)N[C@@H](Cc1c[nH]c2ccccc12)C(=O)NCCO` [compound 1849] (For-VGA[dV]A[dV]V[dV]W[dL]W[dT]W[dL]W-NHCH2CH2OH), which cell viability/% [1] is on record?
A: 100.0%

Q: And the “H+/Na+ transport activity normalized” value [2]?
A: 1.07

Q: What about the antibacterial activity [3] of the same compound?
A: +

Q: With `CC(C)C[C@@H](NC(=O)[C@H](C)NC(=O)CNC(=O)[C@@H](NC=O)C(C)C)C(=O)N[C@@H](C)C(=O)N[C@H](CC(C)C)C(=O)N[C@H](C(=O)N[C@@H](C(=O)N[C@@H](Cc1c[nH]c2ccccc12)C(=O)N[C@@H](C(=O)N[C@@H](Cc1c[nH]c2ccccc12)C(=O)N[C@H](CC(C)C)C(=O)N[C@@H](Cc1c[nH]c2ccccc12)C(=O)N[C@H](CC(C)C)C(=O)N[C@@H](Cc1c[nH]c2ccccc12)C(=O)NCCO)C(C)C)[C@H](C)O)C(C)C` [compound 10710] (For-VGA[dL]A[dL]V[dT]W[dV]W[dL]W[dL]W-NHCH2CH2OH) as the compound, how does the cell viability/% [1] read?
A: 100.0%

Q: What about the “H+/Na+ transport activity normalized” value [2] of the same compound?
A: 1.05

Q: And the antibacterial activity [3]?
A: -

Q: With `CC(C)C[C@@H](NC(=O)[C@H](C)NC(=O)CNC(=O)[C@@H](NC=O)C(C)C)C(=O)N[C@@H](C)C(=O)N[C@H](CC(C)C)C(=O)N[C@H](C(=O)N[C@@H](C(=O)N[C@@H](Cc1c[nH]c2ccccc12)C(=O)N[C@@H](C(=O)N[C@@H](Cc1c[nH]c2ccccc12)C(=O)N[C@H](CC(C)C)C(=O)N[C@@H](Cc1c[nH]c2ccccc12)C(=O)N[C@@H](C(=O)N[C@@H](Cc1c[nH]c2ccccc12)C(=O)NCCO)C(C)C)C(C)C)C(C)C)C(C)C` [compound 10456] (For-VGA[dL]A[dL]V[dV]W[dV]W[dL]W[dV]W-NHCH2CH2OH) as the compound, how does the cell viability/% [1] read?
A: 11.8%

Q: And the “H+/Na+ transport activity normalized” value [2]?
A: 1.13

Q: What about the antibacterial activity [3] of the same compound?
A: +
